In patent US9434695B2, “Nitrogenous heterocyclic derivatives and their application in drugs” (SUNSHINE LAKE PHARMA CO., LTD., priority 2012, dated 2016):

How the values were obtained:
ECM gathering = details: animal experiments of renal fibrosis, pulmonary fibrosis; clinical trials of patients with specific lung fibrosis; cited from earlier work
BHK-21 cells = assay: inhibition of BHK-21 cell proliferation (CCK-8, optical density at 450 nm); assay type: cell-based; details: for IC50: Mesocricetus auratus, inhibition ratio of cell proliferation, 48 hours after dosing, CCK-8; for The ratio with PFD (multiple): ratio of Pirfenidone IC50 from the compound IC50, the bigger the multiple, the better the vitro inhibitory activity, 48 hours
Protocol: Taking BHK-21 cells which in exponential growth phase, collecting and counting the cells which had digestive transfer culture after fusion growth 85-95%, adjusting the cell density to 2×10^4 cells per milliliter, seeding the cells into 96-well plates, 100 μl/well, the cells were incubated in a 5% CO2 incubator at 37° C.
The upper clear liquid of the 96-well plates was removed after the cells adhering to the wall 24 hours. The above compounds were confected into solutions of different concentration and the solutions were added to the wells, 100 μl/well. Each concentration solution in 3 replicates, the cells were subcultured 48 hours after dosing.
3. Testing the Optical Density
10 μl of CCK-8 solution was added to each well 48 hours after dosing, and incubated for 2 hours. The optical density (A) of each well was determined by a microplate reader at 450 nm wavelength. Calculating the inhibition ratio of cell proliferation of each compound is based on A and the inhibition ratio of cell proliferation (inhibition ratio, IR)=(1−value of experimental group (Ai)/value of control group (Ao))×100% and the IC50 of each compound at 48 hours was calculated by data processing software.

Row | Structure (SMILES) | effect on ECM gathering (ECM gathering) | IC50 (BHK-21 cells) | The ratio with PFD (multiple) (BHK-21 cells)
1 | Cc1ccc(=O)n(-c2ccccc2)c1 [pirfenidone, 5-methyl-1-phenyl-2-(1H)-pyridone] | could prevent ECM gathering, or even reverse it |  | 
2 | CCCCCCN(CCCCCC)c1ccc(-n2c(COc3cccc(F)c3)nc(C)cc2=O)cc1F [Example 62, 3-(4-(dihexylamino)-3-fluorophenyl)-2-((3-fluorophenoxy)methyl)-6-methylpyrimidin-4(3H)-one] |  | 310 µM | 24.68 multiple
3 | Cc1cc(=O)n(-c2ccc(N3CCOCC3)c(F)c2)c(COc2cc(F)cc(F)c2)n1 [Example 50, 2-((3,5-difluorophenoxy)methyl)-3-(3-fluoro-4-morpholinophenyl)-6-methylpyrimidin-4(3H)-one] |  | 60 µM | 42.93 multiple
4 | Cc1cc(=O)n(-c2ccc(N3CCOCC3)c(F)c2)c(COc2cncc(F)c2)n1 [Example 60, 3-(3-fluoro-4-morpholinophenyl)-2-(((5-fluoropyridin-3-yl)oxy)methyl)-6-methylpyrimidin-4(3H)-one] |  | 540 µM | 13.72 multiple
5 | Cc1cc(=O)n(-c2ccc(N3CCOCC3)c(Cl)c2)c(COc2cccc(F)c2)n1 [Example 63, 3-(3-chloro-4-morpholinophenyl)-2-((3-fluorophenoxy)methyl)-6-methylpyrimidin-4(3H)-one] |  | 40 µM | 47.43 multiple
6 | Cc1cc(=O)n(-c2ccc(NCCCCN3CCOCC3)c(F)c2)c(C)n1 [Example 31, 3-(3-fluoro-4-((4-morpholinobutyl)amino)phenyl)-2,6-dimethylpyrimidin-4(3H)-one] |  | 2220 µM | 3.50 multiple
7 | Cc1cc(=O)n(-c2ccc(N3CCOCC3)c(Cl)c2)c(COc2cccc(Cl)c2)n1 [Example 64, 3-(3-chloro-4-morpholinophenyl)-2-((3-chlorophenoxy)methyl)-6-methylpyrimidin-4(3H)-one] |  | 190 µM | 10.69 multiple
8 | Cc1cc(=O)n(-c2ccc(N3CCS(=O)(=O)CC3)c(F)c2)c(C)n1 [Example 10, 3-(4-(1,1-dioxidothiomorpholino)-3-fluorophenyl)-2,6-dimethylpyrimidin-4(3H)-one] |  | 5550 µM | 0.72 multiple
9 | Cc1cc(=O)n(-c2ccc(NC(C)(C)Cc3ccc4ccccc4c3)c(Cl)c2)c(C)n1 [Example 45, 3-(3-chloro-4-((2-methyl-1-(naphthalen-2-yl)propan-2-yl)amino)phenyl)-2,6-dimethylpyrimidin-4(3H)-one] |  | 70 µM | 42.60 multiple
10 | CCCCCCN(CCCCCC)c1ccc(-n2c(C)nc(C)cc2=O)cc1C#N [Example 42, 2-(dihexylamino)-5-(2,4-dimethyl-6-oxopyrimidin-1(6H)-yl)benzonitrile] |  | 70 µM | 27.39 multiple
11 | Cc1cc(=O)n(-c2ccc(-n3cccc3)c(F)c2)c(C)n1 [Example 18, 3-(3-fluoro-4-(1H-pyrrol-1-yl)phenyl)-2,6-dimethylpyrimidin-4(3H)-one] |  | 560 µM | 8.10 multiple
12 | Cc1cc(=O)n(-c2ccc(NCCN3CCOCC3)cc2Cl)c(C)n1 [Example 29, 3-(2-chloro-4-((2-morpholinoethyl)amino)phenyl)-2,6-dimethylpyrimidin-4(3H)-one] |  | 1050 µM | 6.82 multiple
13 | Cc1cc(=O)n(-c2ccc(N3CCCC3)c(F)c2)c(C)n1 [Example 21, 3-(3-fluoro-4-(pyrrolidin-1-yl)phenyl)-2,6-dimethylpyrimidin-4(3H)-one] |  | 1300 µM | 5.57 multiple
14 | Cc1cc(=O)n(-c2ccc(N3CCOCC3)c(Cl)c2)c(COc2cccc(C#N)c2)n1 [Example 65, 3-((1-(3-chloro-4-morpholinophenyl)-4-methyl-6-oxo-1,6-dihydropyrimidin-2-yl)methoxy)benzonitrile] |  | 20 µM | 119.61 multiple
15 | CCOCCCNc1ccc(-n2c(C)nc(C)cc2=O)cc1F [Example 34, 3-(4-((3-ethoxypropyl)amino)-3-fluorophenyl)-2,6-dimethylpyrimidin-4(3H)-one] |  | 2490 µM | 3.10 multiple
16 | Cc1cc(=O)n(-c2ccc(N3CCOCC3)c(F)c2)c(COc2ccc(F)c(F)c2)n1 [Example 49, 2-((3,4-difluorophenoxy)methyl)-3-(3-fluoro-4-morpholinophenyl)-6-methylpyrimidin-4(3H)-one] |  | 70 µM | 35.52 multiple
17 | Cc1cc(=O)n(-c2ccc(N3CCN(C)CC3)c(F)c2)c(COc2cccc(F)c2)n1 [Example 55, 3-(3-fluoro-4-(4-methylpiperazin-1-yl)phenyl)-2-((3-fluorophenoxy)methyl)-6-methylpyrimidin-4(3H)-one] |  | 50 µM | 46.92 multiple
18 | Cc1cc(=O)n(-c2ccc3ccn(COc4cccc(C#N)c4)c3c2)c(C)n1 [Example 48, 3-((6-(2,4-dimethyl-6-oxopyrimidin-1(6H)-yl)-1H-indol-1-yl)methoxy)benzonitrile] |  | 350 µM | 10.60 multiple
19 | Cc1cc(=O)n(-c2cc(F)c3c(c2)OCC2CCCN32)c(C)n1 (stereo not drawn) [Example 13, 3-(9-fluoro-2,3,3a,4-tetrahydro-1H-benzo[b]pyrrolo[1,2-d][1,4]oxazin-7-yl)-2,6-dimethylpyrimidin-4(3H)-one] |  | 1980 µM | 2.01 multiple
20 | Cc1cc(=O)n(-c2ccc(N3CCOCC3)c(Cl)c2)c(COc2ccc(Cl)c3ccccc23)n1 [Example 67] |  | 140 µM | 25.09 multiple
